Assay results published in publication PMC10046369, “Low-Affinity/High-Selectivity Dopamine Transport Inhibition Sufficient to Rescue Cognitive Functions in the Aging Rat” (Biomolecules, 2023).

Tests used:
PKNB(M.tuberculosis) = PKNB(M.tuberculosis) (Mycobacterium tuberculosis, UniProt P9WI81); experiment: biochemical; parameters: KINOMEscan competition binding panel, per cent of control; details: read-out: %Ctrl @ 2800nM
DRAK1 = molecular target: T1, DRAK1 (Homo sapiens, UniProt Q9UEE5); experiment: biochemical; parameters: KINOMEscan competition binding panel, per cent of control; details: read-out: %Ctrl @ 2800nM
T1 construct: gene STK17A
Protocol: (§1) A panel of binding assays covering 450 human kinases and disease-relevant mutations was performed by DiscoverX (KINOMEscan®, Freemont, CA, USA) according to the standard and validated protocol defined by the contractor. […] Kinase binding assays This study was outsourced to DiscoverX (KINOMEscan®, Freemont, CA, USA) and is compliant with the corresponding project BUY004-01-p-00001. […] Results are reported as percent control (% Ctrl), where lower numbers indicate stronger hits in the matrix on the following page(s). %Ctrl calculation: ((test compound signal-positive control signal) / (negative control signal – positive control signal)) x 100.

HIPK2 = HIPK2 (Homo sapiens, UniProt Q9H2X6); experiment: biochemical; parameters: KINOMEscan competition binding panel, per cent of control; details: read-out: %Ctrl @ 2800nM
Protocol: as §1

RET(V804M) = RET(V804M) (Homo sapiens, UniProt P07949, V804M); experiment: biochemical; parameters: KINOMEscan competition binding panel, per cent of control; details: read-out: %Ctrl @ 2800nM
Chain of RET(V804M) (P07949 whole entry V804M): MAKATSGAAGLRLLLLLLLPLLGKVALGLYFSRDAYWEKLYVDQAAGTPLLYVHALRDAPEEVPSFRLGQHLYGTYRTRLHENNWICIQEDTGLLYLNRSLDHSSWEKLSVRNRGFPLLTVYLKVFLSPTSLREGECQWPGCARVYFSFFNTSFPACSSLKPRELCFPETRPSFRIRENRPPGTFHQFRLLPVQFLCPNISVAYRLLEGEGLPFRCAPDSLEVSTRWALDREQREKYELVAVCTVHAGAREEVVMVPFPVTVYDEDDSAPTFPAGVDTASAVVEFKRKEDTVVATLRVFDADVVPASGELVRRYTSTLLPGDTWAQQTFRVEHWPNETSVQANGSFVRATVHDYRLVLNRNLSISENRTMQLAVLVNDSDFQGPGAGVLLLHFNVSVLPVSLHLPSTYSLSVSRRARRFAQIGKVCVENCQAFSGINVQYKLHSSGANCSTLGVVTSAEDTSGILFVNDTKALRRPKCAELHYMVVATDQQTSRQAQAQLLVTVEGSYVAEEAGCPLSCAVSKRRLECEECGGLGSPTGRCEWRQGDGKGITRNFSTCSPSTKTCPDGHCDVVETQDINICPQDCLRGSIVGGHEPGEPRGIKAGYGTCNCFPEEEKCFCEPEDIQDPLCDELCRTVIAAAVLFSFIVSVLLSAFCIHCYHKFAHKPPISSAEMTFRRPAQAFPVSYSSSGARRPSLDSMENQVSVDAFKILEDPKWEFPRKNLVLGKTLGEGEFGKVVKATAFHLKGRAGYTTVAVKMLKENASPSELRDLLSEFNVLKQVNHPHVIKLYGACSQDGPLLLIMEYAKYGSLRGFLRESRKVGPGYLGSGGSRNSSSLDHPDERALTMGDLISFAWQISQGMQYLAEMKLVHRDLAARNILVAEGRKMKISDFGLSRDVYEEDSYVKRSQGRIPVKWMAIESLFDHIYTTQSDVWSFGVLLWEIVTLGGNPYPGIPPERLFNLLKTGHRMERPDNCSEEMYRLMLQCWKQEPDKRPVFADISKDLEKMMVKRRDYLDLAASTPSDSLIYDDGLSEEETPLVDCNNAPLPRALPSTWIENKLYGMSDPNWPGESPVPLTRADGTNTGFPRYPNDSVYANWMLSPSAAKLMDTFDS
Protocol: as §1

CHEK1 = CHEK1 (Homo sapiens, UniProt O14757); experiment: biochemical; parameters: KINOMEscan competition binding panel, per cent of control; details: read-out: %Ctrl @ 2800nM
Protocol: as §1

FLT3-autoinhibited = FLT3-autoinhibited (Homo sapiens, UniProt P36888); experiment: biochemical; parameters: KINOMEscan competition binding panel, per cent of control; details: read-out: %Ctrl @ 2800nM
Protocol: as §1

TNIK = TNIK (Homo sapiens, UniProt Q9UKE5); experiment: biochemical; parameters: KINOMEscan competition binding panel, per cent of control; details: read-out: %Ctrl @ 2800nM
Protocol: as §1

TAK1 = molecular target: T2, TAK1 (Homo sapiens, UniProt O43318); experiment: biochemical; parameters: KINOMEscan competition binding panel, per cent of control; details: read-out: %Ctrl @ 2800nM
T2 construct: gene MAP3K7
Protocol: as §1

MST1 = molecular target: T3, MST1 (Homo sapiens, UniProt Q13043); experiment: biochemical; parameters: KINOMEscan competition binding panel, per cent of control; details: read-out: %Ctrl @ 2800nM
T3 construct: gene STK4
Protocol: as §1

CDC2L5 = molecular target: T4, CDC2L5 (Homo sapiens, UniProt Q14004); experiment: biochemical; parameters: KINOMEscan competition binding panel, per cent of control; details: read-out: %Ctrl @ 2800nM
T4 construct: gene CDK13
T4 sequence (Q14004 whole entry): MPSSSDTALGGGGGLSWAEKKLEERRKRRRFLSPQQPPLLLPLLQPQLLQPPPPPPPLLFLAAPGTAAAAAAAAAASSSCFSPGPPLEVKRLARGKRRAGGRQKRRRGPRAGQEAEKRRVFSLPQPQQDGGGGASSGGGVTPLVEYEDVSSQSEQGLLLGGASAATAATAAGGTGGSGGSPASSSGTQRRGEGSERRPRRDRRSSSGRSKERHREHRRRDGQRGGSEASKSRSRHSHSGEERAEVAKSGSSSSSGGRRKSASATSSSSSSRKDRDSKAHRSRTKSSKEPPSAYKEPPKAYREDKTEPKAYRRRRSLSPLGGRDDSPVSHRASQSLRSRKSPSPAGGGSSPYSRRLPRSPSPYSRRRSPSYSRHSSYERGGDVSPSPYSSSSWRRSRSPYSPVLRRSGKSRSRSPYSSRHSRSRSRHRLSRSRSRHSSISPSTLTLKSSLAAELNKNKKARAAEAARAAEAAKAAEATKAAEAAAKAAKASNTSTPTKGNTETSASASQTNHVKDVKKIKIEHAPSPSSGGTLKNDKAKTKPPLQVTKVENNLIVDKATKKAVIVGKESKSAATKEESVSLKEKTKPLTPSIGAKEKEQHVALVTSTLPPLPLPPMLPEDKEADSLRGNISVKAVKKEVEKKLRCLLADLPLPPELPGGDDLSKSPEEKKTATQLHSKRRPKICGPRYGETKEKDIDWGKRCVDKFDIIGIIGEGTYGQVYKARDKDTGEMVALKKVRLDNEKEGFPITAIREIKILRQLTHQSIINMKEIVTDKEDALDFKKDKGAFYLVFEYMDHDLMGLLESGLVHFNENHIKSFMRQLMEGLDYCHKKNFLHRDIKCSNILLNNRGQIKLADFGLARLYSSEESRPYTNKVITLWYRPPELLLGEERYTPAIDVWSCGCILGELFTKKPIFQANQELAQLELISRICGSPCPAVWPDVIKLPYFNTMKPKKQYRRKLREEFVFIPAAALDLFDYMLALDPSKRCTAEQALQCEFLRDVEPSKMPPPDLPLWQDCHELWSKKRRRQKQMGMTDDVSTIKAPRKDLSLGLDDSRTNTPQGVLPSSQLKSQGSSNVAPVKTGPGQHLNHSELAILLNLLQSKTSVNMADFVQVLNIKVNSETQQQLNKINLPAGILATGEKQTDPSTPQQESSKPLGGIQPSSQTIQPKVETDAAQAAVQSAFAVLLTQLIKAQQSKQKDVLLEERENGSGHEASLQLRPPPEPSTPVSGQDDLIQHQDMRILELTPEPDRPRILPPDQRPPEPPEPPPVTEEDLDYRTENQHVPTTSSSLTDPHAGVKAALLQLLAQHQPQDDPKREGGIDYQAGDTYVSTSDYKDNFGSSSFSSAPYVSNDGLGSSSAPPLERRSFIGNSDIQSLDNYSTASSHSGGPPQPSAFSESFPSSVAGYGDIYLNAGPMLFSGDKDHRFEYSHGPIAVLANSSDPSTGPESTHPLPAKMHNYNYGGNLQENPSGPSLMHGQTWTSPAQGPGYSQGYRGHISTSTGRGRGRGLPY
Protocol: as §1

MAST1 = MAST1 (Homo sapiens, UniProt Q9Y2H9); experiment: biochemical; parameters: KINOMEscan competition binding panel, per cent of control; details: read-out: %Ctrl @ 2800nM
Protocol: as §1

MAP3K4 = MAP3K4 (Homo sapiens, UniProt Q9Y6R4); experiment: biochemical; parameters: KINOMEscan competition binding panel, per cent of control; details: read-out: %Ctrl @ 2800nM
Protocol: as §1

EPHA6 = EPHA6 (Homo sapiens, UniProt Q9UF33); experiment: biochemical; parameters: KINOMEscan competition binding panel, per cent of control; details: read-out: %Ctrl @ 2800nM
Chain of EPHA6 (Q9UF33 whole entry): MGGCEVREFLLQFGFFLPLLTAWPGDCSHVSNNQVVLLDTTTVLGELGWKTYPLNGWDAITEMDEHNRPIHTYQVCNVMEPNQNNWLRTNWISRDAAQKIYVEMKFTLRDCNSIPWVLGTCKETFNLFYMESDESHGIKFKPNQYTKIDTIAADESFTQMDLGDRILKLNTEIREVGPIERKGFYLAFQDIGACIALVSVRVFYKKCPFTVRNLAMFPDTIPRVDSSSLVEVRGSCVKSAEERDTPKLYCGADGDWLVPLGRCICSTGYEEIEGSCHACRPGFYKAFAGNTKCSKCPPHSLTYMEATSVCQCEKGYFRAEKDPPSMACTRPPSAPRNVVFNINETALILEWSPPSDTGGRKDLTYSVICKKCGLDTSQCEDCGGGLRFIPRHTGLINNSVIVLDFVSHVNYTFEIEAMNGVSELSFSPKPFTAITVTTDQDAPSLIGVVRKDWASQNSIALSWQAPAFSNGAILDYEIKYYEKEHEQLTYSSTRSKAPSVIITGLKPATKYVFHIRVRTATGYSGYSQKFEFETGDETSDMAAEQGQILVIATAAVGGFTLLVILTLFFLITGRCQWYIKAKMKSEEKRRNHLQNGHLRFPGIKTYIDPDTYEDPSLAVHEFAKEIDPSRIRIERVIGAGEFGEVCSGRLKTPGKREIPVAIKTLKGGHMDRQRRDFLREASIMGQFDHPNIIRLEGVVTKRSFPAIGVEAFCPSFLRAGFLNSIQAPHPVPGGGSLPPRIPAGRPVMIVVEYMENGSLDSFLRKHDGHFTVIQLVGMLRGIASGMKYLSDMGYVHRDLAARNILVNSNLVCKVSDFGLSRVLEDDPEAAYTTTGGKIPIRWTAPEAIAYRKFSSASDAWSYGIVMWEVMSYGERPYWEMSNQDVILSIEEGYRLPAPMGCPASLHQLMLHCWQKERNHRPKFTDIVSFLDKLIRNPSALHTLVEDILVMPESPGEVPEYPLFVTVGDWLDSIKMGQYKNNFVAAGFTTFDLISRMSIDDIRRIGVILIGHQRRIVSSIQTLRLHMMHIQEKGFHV
Protocol: as §1

ROS1 = ROS1 (Homo sapiens, UniProt P08922); experiment: biochemical; parameters: KINOMEscan competition binding panel, per cent of control; details: read-out: %Ctrl @ 2800nM
Protocol: as §1

p38-alpha = molecular target: T5, p38-alpha (Homo sapiens, UniProt Q16539); experiment: biochemical; parameters: KINOMEscan competition binding panel, per cent of control; details: read-out: %Ctrl @ 2800nM
T5 construct: gene MAPK14
Protocol: as §1

PFCDPK1(P.falciparum) = molecular target: T6, PFCDPK1(P.falciparum) (Plasmodium falciparum, UniProt P62344); experiment: biochemical; parameters: KINOMEscan competition binding panel, per cent of control; details: read-out: %Ctrl @ 2800nM
T6 construct: gene CDPK1

FPR1 = FPR1 (Homo sapiens, UniProt P21462); experiment: cell-based; parameters: Eurofins Cerep functional GPCR screen, antagonist mode, inhibition of control agonist response; details: read-out: % Inhibition of Control Agonist Response, Mean
Chain of FPR1 (P21462 whole entry): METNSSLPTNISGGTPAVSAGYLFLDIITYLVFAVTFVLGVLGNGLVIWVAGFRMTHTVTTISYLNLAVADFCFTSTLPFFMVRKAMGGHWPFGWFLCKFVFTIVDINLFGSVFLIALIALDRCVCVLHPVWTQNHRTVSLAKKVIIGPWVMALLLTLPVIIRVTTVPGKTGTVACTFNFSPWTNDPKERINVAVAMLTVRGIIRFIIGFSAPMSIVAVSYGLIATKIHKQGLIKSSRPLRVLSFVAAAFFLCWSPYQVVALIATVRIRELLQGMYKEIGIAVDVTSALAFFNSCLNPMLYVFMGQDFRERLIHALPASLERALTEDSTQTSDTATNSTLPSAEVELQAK

FFA2 = molecular target: T7, FFA2 (Homo sapiens, UniProt O15552); experiment: cell-based; parameters: Eurofins Cerep functional GPCR screen, antagonist mode, inhibition of control agonist response; details: read-out: % Inhibition of Control Agonist Response, Mean
T7 construct: gene FFAR2

ETB = molecular target: T8, ETB (Homo sapiens, UniProt P24530); experiment: cell-based; parameters: Eurofins Cerep functional GPCR screen, antagonist mode, inhibition of control agonist response; details: read-out: % Inhibition of Control Agonist Response, Mean
T8 construct: gene EDNRB

GAL1 = molecular target: T9, GAL1 (Homo sapiens, UniProt P47211); experiment: cell-based; parameters: Eurofins Cerep functional GPCR screen, antagonist mode, inhibition of control agonist response; details: read-out: % Inhibition of Control Agonist Response, Mean
T9 construct: gene GALR1
T9 sequence (P47211 whole entry): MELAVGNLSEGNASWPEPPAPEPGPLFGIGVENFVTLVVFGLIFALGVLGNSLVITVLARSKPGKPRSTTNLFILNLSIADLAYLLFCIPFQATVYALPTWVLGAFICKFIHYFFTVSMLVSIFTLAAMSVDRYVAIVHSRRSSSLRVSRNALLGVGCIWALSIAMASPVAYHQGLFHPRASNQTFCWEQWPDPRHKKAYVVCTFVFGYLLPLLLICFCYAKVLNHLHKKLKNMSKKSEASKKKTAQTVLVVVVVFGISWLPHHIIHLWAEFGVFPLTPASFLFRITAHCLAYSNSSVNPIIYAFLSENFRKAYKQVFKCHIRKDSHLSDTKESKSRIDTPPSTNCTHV

CCR3 = CCR3 (Homo sapiens, UniProt P51677); experiment: cell-based; parameters: Eurofins Cerep functional GPCR screen, antagonist mode, inhibition of control agonist response; details: read-out: % Inhibition of Control Agonist Response, Mean
H1 = molecular target: T10, H1 (Homo sapiens, UniProt P35367); experiment: cell-based; parameters: Eurofins Cerep functional GPCR screen, antagonist mode, inhibition of control agonist response; details: read-out: % Inhibition of Control Agonist Response, Mean
T10 construct: gene HRH1

ETA = molecular target: T11, ETA (Homo sapiens, UniProt P25101); experiment: cell-based; parameters: Eurofins Cerep functional GPCR screen, antagonist mode, inhibition of control agonist response; details: read-out: % Inhibition of Control Agonist Response, Mean
T11 construct: gene EDNRA

CB1 = molecular target: T12, CB1 (Homo sapiens, UniProt P21554); experiment: cell-based; parameters: Eurofins Cerep functional GPCR screen, antagonist mode, inhibition of control agonist response; details: read-out: % Inhibition of Control Agonist Response, Mean
T12 construct: gene CNR1

GHRH = molecular target: T13, GHRH (Homo sapiens, UniProt Q02643); experiment: cell-based; parameters: Eurofins Cerep functional GPCR screen, antagonist mode, inhibition of control agonist response; details: read-out: % Inhibition of Control Agonist Response, Mean
T13 construct: gene GHRHR
T13 sequence (Q02643 whole entry): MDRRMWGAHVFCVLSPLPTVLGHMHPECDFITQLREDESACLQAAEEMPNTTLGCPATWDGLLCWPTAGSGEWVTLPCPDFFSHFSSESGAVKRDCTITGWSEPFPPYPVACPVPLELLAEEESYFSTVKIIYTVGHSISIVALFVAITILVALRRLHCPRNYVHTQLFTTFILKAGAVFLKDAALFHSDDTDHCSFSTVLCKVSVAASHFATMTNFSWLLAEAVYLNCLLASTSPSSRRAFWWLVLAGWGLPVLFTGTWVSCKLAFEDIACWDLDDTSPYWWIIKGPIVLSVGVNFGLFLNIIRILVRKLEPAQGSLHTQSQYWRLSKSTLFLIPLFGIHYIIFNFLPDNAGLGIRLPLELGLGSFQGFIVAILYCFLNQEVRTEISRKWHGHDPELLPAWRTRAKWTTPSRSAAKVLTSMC

For `[O-][S@@+](Cc1cncs1)C(c1ccccc1)c1ccccc1` [S-CE-123, (S)-5-((Benzhydrylsulfinyl)Methyl)Thiazole], which remaining binding at 2.8 µM (PKNB(M.tuberculosis)) is on record?
Its remaining binding at 2.8 µM is 96%.

What about the remaining binding at 2.8 µM (DRAK1) of the same compound?
The remaining binding at 2.8 µM was 95%.

What about the remaining binding at 2.8 µM (HIPK2) of the same compound?
Its remaining binding at 2.8 µM is 100%.

And the remaining binding at 2.8 µM (RET(V804M))?
Its remaining binding at 2.8 µM is 95%.

And the remaining binding at 2.8 µM (CHEK1)?
Its remaining binding at 2.8 µM is 89%.

What about the remaining binding at 2.8 µM (FLT3-autoinhibited) of the same compound?
The remaining binding at 2.8 µM was 99%.

And the remaining binding at 2.8 µM (TNIK)?
The remaining binding at 2.8 µM was 89%.

And the remaining binding at 2.8 µM (TAK1)?
The remaining binding at 2.8 µM was 71%.

What about the remaining binding at 2.8 µM (MST1) of the same compound?
The remaining binding at 2.8 µM was 97%.

What about the remaining binding at 2.8 µM (CDC2L5) of the same compound?
Its remaining binding at 2.8 µM is 98%.

And the remaining binding at 2.8 µM (MAST1)?
The remaining binding at 2.8 µM was 94%.

What about the remaining binding at 2.8 µM (MAP3K4) of the same compound?
The remaining binding at 2.8 µM was 84%.

What about the remaining binding at 2.8 µM (EPHA6) of the same compound?
Its remaining binding at 2.8 µM is 100%.

What about the remaining binding at 2.8 µM (ROS1) of the same compound?
Its remaining binding at 2.8 µM is 91%.

And the remaining binding at 2.8 µM (p38-alpha)?
The remaining binding at 2.8 µM was 100%.

What about the remaining binding at 2.8 µM (PFCDPK1(P.falciparum)) of the same compound?
Its remaining binding at 2.8 µM is 70%.

What about the inhibition at 2.8 µM (FPR1) of the same compound?
Its inhibition at 2.8 µM is 1.6%.

What about the inhibition at 2.8 µM (FFA2) of the same compound?
The inhibition at 2.8 µM was 2.9%.

What about the inhibition at 2.8 µM (ETB) of the same compound?
Its inhibition at 2.8 µM is 1.5%.

And the inhibition at 2.8 µM (GAL1)?
The inhibition at 2.8 µM was 2.3%.

What about the inhibition at 2.8 µM (CCR3) of the same compound?
Its inhibition at 2.8 µM is -10.7%.

And the inhibition at 2.8 µM (H1)?
Its inhibition at 2.8 µM is -1.9%.

What about the inhibition at 2.8 µM (ETA) of the same compound?
Its inhibition at 2.8 µM is -0.5%.

And the inhibition at 2.8 µM (CB1)?
Its inhibition at 2.8 µM is -2.1%.

What about the inhibition at 2.8 µM (GHRH) of the same compound?
Its inhibition at 2.8 µM is 11.7%.
